Values of other authors as cited in patent publication US20080280861A1, “Method of Female Contraception and a Kit For Use Therein” (PANTARHEI BIOSCIENCE B.V., priority 2004, published 2008).

Details: relative to levonorgestrel dosage; known in the art
For `C#C[C@]1(OC(C)=O)CC[C@H]2[C@@H]3CCC4=CC(=NO)CC[C@@H]4[C@H]3CC[C@@]21CC` (mixture of isomers) [Norgestimate], the Conversion factor is given as 1.7.
In the case of `C[C@]12CCC(=O)C=C1[C@@H]1C[C@@H]1[C@H]1[C@@H]3[C@@H]4C[C@@H]4[C@@]4(CCC(=O)O4)[C@@]3(C)CC[C@@H]12` [Drospirenone], the Conversion factor is given as 20.
In the case of `CC(=O)[C@H]1CC[C@H]2[C@@H]3C=CC4=CC(=O)CC[C@@]4(C)[C@@H]3CC[C@]12C` [Dydrogesterone], the Conversion factor is listed as 133.
For `C#C[C@]1(O)CC[C@H]2[C@@H]3CCC4=CC(=O)CC[C@@H]4[C@H]3CC[C@@]21C` [Norethisterone], the Conversion factor is listed as 7.
